Data: US9381191B2, “Imidazopyridine derivatives useful in treating diabetes” (METABRAIN RESEARCH, priority 2012, dated 2016)

Columns and labels:
INS-1 cells = assay: Stimulation test of insulin secretion by INS-1 cells; type: cell-based; settings: Rattus norvegicus, INS1, 1 h, insulin secretion by INS-1 cells in response to glucose; for insulin secretion, % of control at 10 µM: read-out: HGP % of ctrl @ 10 μM; for insulin secretion, % of control at 50 µM: read-out: HGP % of ctrl @ 50 μM
Description: The different compounds were tested on an INS-1 beta-pancreatic line in order to evaluate their capability of potentializing the insulin secretion in response to glucose. Very briefly, the cells are cultivated in a culture medium, RPMI 1640 with 10 mM glucose containing 1 mM of sodium pyruvate, 50 μM of 2-mercaptoethanol, 2 mM of glutamine, 10 mM of HEPES, 100 IU/ml of penicillin, 100 μg/ml of streptomycin and 10% of inactivated fetal calf serum, as described by Asfari et al.. For the insulin secretion test, the INS-1 cells are sown and cultivated in 96-well plates. After 3 days of cultivation at 37° C. in a humid atmosphere (95% air/5% CO2), the medium is removed and the cells are incubated for 16 h in a medium containing 5 mM of glucose and 1% of inactivated fetal calf serum. On the day of the test, the cells are washed with a Krebs buffer (pH 7.4) containing 0.1% of bovine albumin and then pre-incubated for 30 min at 37° C. in this same buffer containing 2.8 mM of glucose. Finally, the cells are again washed with Krebs buffer and then incubated for 1 h in the buffer of the secretion test (Krebs, pH 7.4 containing 0.1% of bovine albumin and 3.5 mM of glucose and molecules to be evaluated). At the end of the test, the cell supernatant is recovered in order to measure therein the secreted insulin, by means of an ELISA kit using a rat anti-insulin antibody (ELISA Alpco Cat no. 80-INSRTH-E10). Each condition is tested in triplicate. The 3.5 mM glucose, the 10^−7M GLP-1 and the Forskoline 10^−7/IBMX 10^−5M mixtures are used as positive controls of the test. A compound stimulates the secretion of insulin if this factor is greater than or equal to 130% of the control for a given glucose dose.

isolated rat hepatocytes [1] = assay: Hepatic production of glucose, 20 h incubation; type: cell-based, Wistar rat; settings: for HGP % of ctrl @ 50 μM / HGP % of ctrl @ 100 μM: rat hepatocytes
Description: (§1) The hepatocytes are isolated from Wistar rat liver having fasted for 24 h after perfusion of collagenase in the portal vein. 1) The freshly isolated hepatocytes are sown in 6-well plates coated with collagen and containing an adhesion medium (Williams Medium). After adhesion, the medium is replaced with RPMI 1640 medium without any glucose, containing hydrocortisone (7·10^−5M) for a duration from 16 to 18 h. The next day, the glucose hepatic production test is conducted in a Krebs medium for 3 h. The basal conditions are cells incubated with only Krebs, the stimulated conditions are the cells placed in Krebs+lactate+pyruvate, the produced conditions are the cells exposed to chemical compounds in a Krebs/lactate/pyruvate medium. In the case when the compounds are dissolved in DMSO, all the conditions of the tests are met in the presence of a final concentration of 0.1% DMSO. The positive control of the test is the mercaptopicolinate known for its inhibitory action on hepatic production of glucose via the phosphoenolpyruvate carboxykinase. For short term treatments, the compounds are incubated for 3 h. For long term treatments, the compounds are incubated for 20 h at the moment when the hepatocytes are cultivated in RPMI and then added during the hepatic production test for 3 h. At the end of the 3 hours of incubation, the supernatant is recovered for measurement of glucose with a colorimetric method using glucose oxidase. The cells are lysed with a 0.1% NaOH aqueous solution in order to measure the amount of protein with the Lowry method. The results are expressed in mmol of glucose per mg of protein.

GK rats = assay: Antidiabetic activity in GK (Goto-Kakisaki) rats; type: in vivo, rat; settings: single oral dose 50 mg/kg
Description: The antidiabetic activity of compound 118 was evaluated in GK rats, a non-obese model of diabetes of type II. This model was obtained by cross-breeding of Wistar rats selected on the basis of a slight intolerance to glucose. These rats have the majority of dysfunctions observed in diabetes of type II in humans: hyperglycaemia, intolerance to glucose, insulin-resistance, and deteriorated insulin response to glucose. These animals were bred at Metabrain and were housed in an animal housing facility with a regulated temperature (22±2° C.) under constant humidity (50±20%) with a day/night cycle of 12 h (light from 7 h-19 h) and have access ad libitum to food and drink. The housing and experimentation conditions comply with the European directives relating to health and ethical treatment of laboratory animals (ETS123). In this study, the rats used are male 16-week old GK rats having fasted for 2 hours before beginning the study (postabsorptive condition). Monitoring of glycaemia is carried out on 2 groups of rats: One group treated with the compound 118 orally at the single dose of 50 mg/kg and a control group treated orally with the carrier. A blood sample was taken at T0 just before administration of the compound 118 or of the carrier and at times T1 h, T2 h, T4 h and T6 h after administration. The determination of glycaemia is achieved from a drop of blood taken from the tail measured with a glucometer Accu-Check Performa. The results shown below are expressed as a percentage of the decrease of glycaemia at T1 h, T2 h, T4 h and T6 h for the group treated with the compound 118 as compared with the control group

isolated rat hepatocytes [2] = assay: Hepatic production of glucose, 3 h incubation; type: cell-based, Wistar rat; settings: for activity at 50 µM / activity at 100 µM: Hepatocyte, rat hepatocytes; for activity at 50 µM: read-out: HGP % of ctrl @ 50 μM; for activity at 100 µM: read-out: HGP % of ctrl @ 100 μM
Description: as §1

[3] = tested on: isolated perfused pancreases of N0STZ diabetic rats; assay: Insulin secretion in response to glucose at isolated perfused pancreases of N0STZ diabetic rats; design: species or system rat; settings: glucose 16.5 mM, control group 560 ± 71
Description: The pancreas was taken on rats made to be diabetic by injection of Streptozotocin on the day of birth and anaesthetized with Pentobarbital (Nembutal©: 45 mg/kg; intraperitoneal route). These rats have a specific deficiency of the insulin response to glucose, as observed in humans with diabetes of type II. The isolation and the perfusion of the pancreas were achieved according to a modification of the procedure described by Sussman et al.. The effect of the compounds or reference substances is tested for 35 minutes (from t=20 min to t=55 min) in Krebs buffer, and then 20 minutes (from t=55 min to t=75 min) in the presence of glucose 16.5 mM. The concentration of insulin secreted into the medium is measured by an Elisa assay (ELISA Alpco Cat no. 80-INSRTH-E10). The results are expressed as an average +/−SEM (Standard Error of the Mean) of several experiments.

| Compound | insulin secretion, % of control at 10 µM (INS-1 cells) [%] | insulin secretion, % of control at 50 µM (INS-1 cells) [%] | HGP % of ctrl @ 50 μM (isolated rat hepatocytes [1]) | HGP % of ctrl @ 100 μM (isolated rat hepatocytes [1]) | activity at 50 µM (isolated rat hepatocytes [2]) [%] | activity at 100 µM (isolated rat hepatocytes [2]) [%] | also measured |
| --- | --- | --- | --- | --- | --- | --- | --- |
| CCOC(=O)COCc1nc2ccccn2c1C#Cc1cccc(OC)c1 [Derivative 12, ethyl 2-((3-((3-methoxyphenyl)-ethynyl)imidazo[1,2-a]pyridin-2-yl)methoxy)acetate] | 123 | 204 | 89 % of ctrl | 54 % of ctrl | – | – | – |
| O=C(O)CSCc1nc2ccc(Cl)cn2c1C#Cc1cccc(C(F)(F)F)c1 [Derivative 118, 2-[[6-chloro-3-[2-[3-(trifluoro-methyl)-phenyl]ethynyl]imidazo[1,2-a]pyridin-2-yl]methylsulfanyl] acetic acid] | – | – | 57 % of ctrl | – | – | – | % of activity on glycemia (GK rats; T1 h after administration, p = 0.0242): −14%; % of activity on glycemia (GK rats; T2 h after administration, p = 0.0171): −15%; % of activity on glycemia (GK rats; T4 h after administration, p = 0.1468 NS): −10%; % of activity on glycemia (GK rats; T6 h after administration, p = 0.2450 NS): −8%; reduction of hyperglycaemia (GK rats): capable of reducing hyperglycaemia |
| O=C([O-])COCc1nc2ccccn2c1C#Cc1ccc(F)cc1.[Na+] [Derivative 46, sodium 2-((3-((4-fluorophenyl)-ethynyl)imidazo[1,2-a]pyridin-2-yl)methoxy)acetate] | – | – | 93 % of ctrl | 52 % of ctrl | 85 | 69 | – |
| COC(=O)c1cccc(OCc2nc3ccccn3c2C#Cc2cccc(C(F)(F)F)c2)c1 [Derivative 81, methyl 3-((3-((3-(trifluoromethyl)-phenyl)ethynyl)imidazo[1,2-a]pyridin-2-yl)methoxy)benzoate] | 142 | 134 | – | – | 76 | 47 | inhibition of hepatic production of glucose (isolated rat hepatocytes [2]; dose of 100 μM): strongest inhibitions |
| COC(=O)c1ccccc1OCc1nc2ccccn2c1C#Cc1cccc(C#N)c1 [Derivative 79, methyl 2-((3-((3-cyanophenyl)-ethynyl)imidazo[1,2-a]pyridin-2-yl)methoxy)benzoate] | 128 | 152 | – | – | 86 | 74 | – |
| CCOC(=O)COCc1nc2ccccn2c1C#Cc1ccc(F)cc1 [Derivative 3, ethyl 2-((3-((4-fluorophenyl)-ethynyl)imidazo[1,2-a]pyridin-2-yl)methoxy)acetate] | 130 | 472 | – | – | 73 | 60 | – |
| O=C(O)COCc1nc2ccccn2c1C#Cc1ccc(F)cc1 [Derivative 44, 2-((3-((4-fluorophenyl)ethynyl)-imidazo[1,2-a]pyridin-2-yl)methoxy)acetic acid] | – | – | – | – | – | – | Insulin secretion peak at G16.5 mM, Tested product ([3]; tested concentration 10 μM): 1 724 μU/min. |
| COC(=O)c1ccccc1OCc1nc2ccccn2c1C#Cc1ccc(F)cc1 [Derivative 76, methyl 2-((3-((4-fluorophenyl)-ethynyl)imidazo[1,2-a]pyridin-2-yl)methoxy)benzoate] | 156 | 202 | – | – | 67 | 59 | inhibition of hepatic production of glucose (isolated rat hepatocytes [2]; dose of 100 μM): strongest inhibitions |
| COC(=O)c1cccc(OCc2nc3ccccn3c2C#Cc2ccccc2)c1 [Derivative 87, methyl 3-((3-(phenylethynyl)-imidazo[1,2-a]pyridin-2-yl)methoxy)benzoate] | 182 | 167 | – | – | 43 | 25 | inhibition of hepatic production of glucose (isolated rat hepatocytes [2]; with two doses): strongest inhibitions |
| CCONC(=O)COCc1nc2ccccn2c1C#Cc1ccc(F)cc1 [Derivative 58, N-ethoxy-2-((3-((4-fluorophenyl)ethynyl)imidazo [1,2-a]pyridin-2-yl)methoxy) acetamide] | 127 | 233 | 32 % of ctrl | 17 % of ctrl | – | – | inhibition of hepatic production of glucose (isolated rat hepatocytes [1]): strongest inhibitions |
| O=C([O-])c1ccccc1OCc1nc2ccccn2c1C#Cc1ccccc1.[Na+] [Derivative 92, sodium 2-((3-(phenylethynyl)imidazo-[1,2-a]pyridin-2-yl)methoxy)-benzoate] | 135 | 211 | – | – | 58 | 39 | inhibition of hepatic production of glucose (isolated rat hepatocytes [2]; with two doses): strongest inhibitions |
| CC(C)OC(=O)COCc1nc2ccccn2c1C#Cc1ccc(F)cc1 [Derivative 54, isopropyl 2-((3-((4-fluorophenyl)ethynyl)imidazo [1,2-a]pyridin-2-yl)methoxy) acetate] | 203 | – | 64 % of ctrl | 44 % of ctrl | – | – | Insulin secretion peak at G16.5 mM, Tested product ([3]; tested concentration 1 μM): 961 ± 130 μU/min.; Insulin secretion peak at G16.5 mM, Tested product ([3]; tested concentration 10 μM): 1 637 μU/min. |
